The text below walks through data of patent US10738056B2 (Aduro BioTech, Inc., priority 2017, dated 2020).

The subject of assay [1] is RANTES/CCL5 secretion by Trex1-KO BMM. Nature of the assay: Inhibition of RANTES/CCL5 secretion by Trex1-KO bone marrow-derived macrophages. It is filed as cell-based, mice. Set-up: key to BMM IC50 R (RANTES): A: an IC50 value less than 5 μM; B: an IC50 value between 5 and 20 μM; where an IC50 value could not be calculated from the data. Conditions: RANTES secretion; for pIC50: Mus musculus, Macrophage, read-out: BMM IC50 R (RANTES). How it is done: (§1) A cellular assay can be used to asses the compounds of the invention for their ability to inhibit cytokine production. Bone marrow macrophages harvested from mice can be used to determine response as a function of compound concentration.
(§2) The inhibition of secreted cytokine was measured in bone marrow-derived macrophages (BMMs) from diseased mice to evaluate the potency of compounds of the invention as described herein. […] To derive bone marrow macrophages, marrow extracted from the femurs and tibias were harvested from Trex1-KO mice was cultured in growth media supplemented with macrophage colony-stimulating factor (M-CSF). Differentiated BMM were harvested and frozen for subsequent experimentation. For treatment with compound C1089 (see Example 13), a frozen stock of Trex1-KO BMM was thawed and 1×10^5 cells were plated in 96 well format. BMMs were treated with a dilution series of C1089 and incubated overnight at 37° C. 5% CO2, at which point cellular supernatants were harvested and stored at −80° C. for subsequent analysis. The media used for this dilution series was without FBS. Remaining cells were evaluated for viability using Cell Titer Glo 2.0 kit according to the manufacturer instructions. BMM supernatants were evaluated for the secreted cytokine […] (RANTES/CCL5) or for secreted cytokine monocyte chemoattractant protein 1 (MCP-1/CCL2) using cytometric bead array mouse Flex Set kits (BD Biosciences). Cytokine concentration was calculated from a standard curve and normalized to vehicle (DMSO) treated cells.

Assay [2] concerns the target Human cGAS amino acids 155-522 (Homo sapiens (Human), UniProt Q8N884). Kind of assay: cGAS biochemical activity assay (ATP remaining, Kinase-Glo Max luminescence). The settings on record: human cGAS 155-522, ATP remaining (Kinase-Glo Max); read-out: cGAS IC50.
In assay [3] the test system is cGAS/STING pathway in THP1 cells. Kind of assay: THP1 cell-based cGAS/STING pathway activity assay (IRF-3-linked luciferase reporter). Conditions: Homo sapiens, THP-1. The gist of the method:
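THP1 cells carrying an IRF-3-driven luciferase reporter were read across a range of compound concentrations, and IC50 values were derived from these concentration responses; the assay upper limit was 100 μM.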
On the technique in general: In a reporter assay the amount or activity of a reporter protein is the signal.

For assay [4], the system named is MCP-1/CCL2 secretion by Trex1-KO BMM. Kind of assay: Inhibition of MCP-1/CCL2 secretion by Trex1-KO bone marrow-derived macrophages. The class given is cell-based, mice. More on the design: key to BMM IC50 M (MCP-1): A: an IC50 value less than 5 μM; B: an IC50 value between 5 and 20 μM; where an IC50 value could not be calculated from the data. Conditions: MCP-1 secretion; for pIC50: Mus musculus, Macrophage, read-out: BMM IC50 M (MCP-1). How it is done:
as §1, §2

SMILES strings stand for the structures. pIC50: −log10 of the molar value. Bounds are passed on as bounds.

Chain of Human cGAS amino acids 155-522 (Q8N884 157-522): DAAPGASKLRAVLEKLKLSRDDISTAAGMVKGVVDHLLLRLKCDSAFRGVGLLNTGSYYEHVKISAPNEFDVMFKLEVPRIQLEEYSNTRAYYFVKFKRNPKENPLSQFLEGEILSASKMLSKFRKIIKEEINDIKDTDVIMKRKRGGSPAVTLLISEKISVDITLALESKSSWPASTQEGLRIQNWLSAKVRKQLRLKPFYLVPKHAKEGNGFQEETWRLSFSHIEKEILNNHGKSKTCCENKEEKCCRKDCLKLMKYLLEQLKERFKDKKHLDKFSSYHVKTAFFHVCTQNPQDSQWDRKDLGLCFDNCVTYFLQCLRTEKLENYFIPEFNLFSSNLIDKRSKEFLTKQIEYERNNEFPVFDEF

By pIC50 is commonly meant −log10 of the IC50, conventionally taken in molar units. As to `Cc1[nH]c2c(-c3ccccc3)c(C(F)(F)F)nn2c(=O)c1C(=O)Nc1cccc(OC2CCCC2)c1` [Compound A1082, N-(3-(cyclopentyloxy)phenyl)-5-methyl-7-oxo-3-phenyl-2-(trifluoromethyl)-4,7-dihydropyrazolo[1,5-a]pyrimidine-6-carboxamide], the “BMM IC50 R (RANTES)” value in assay [1] was “C”. The pIC50 in assay [2] and in assay [3] was over 4.70 in each case. Also, the “BMM IC50 M (MCP-1)” value in assay [4] was “C”.

As for `Cc1[nH]c2c(-c3ccccc3)c(C(F)(F)F)nn2c(=O)c1C(=O)Nc1nc(C2CC2)cs1` [Compound A1095, N-(4-cyclopropylthiazol-2-yl)-5-methyl-7-oxo-3-phenyl-2-(trifluoromethyl)-4,7-dihydropyrazolo[1,5-a]pyrimidine-6-carboxamide], in assay [1], the “BMM IC50 R (RANTES)” value was “C”. In addition, the negative logarithm of the IC50 (pIC50) in assay [2] and in assay [3] was over 4.70 in each case. Besides, the “BMM IC50 M (MCP-1)” value in assay [4] is “C”.

Consider `COc1cc(Br)cc(NC(=O)c2c(C)[nH]c3c(-c4ccccc4)c(C(F)(F)F)nn3c2=O)c1` [Compound A1129, N-(3-bromo-5-methoxyphenyl)-5-methyl-7-oxo-3-phenyl-2-(trifluoromethyl)-4,7-dihydropyrazolo[1,5-a]pyrimidine-6-carboxamide], for which, in assay [1], the “BMM IC50 R (RANTES)” value was “C”. The pIC50 is over 4.70 in assay [2], 4.00 to 4.70 in assay [3] and 4.70 to 5.30 in assay [4].

`COc1cc(Cl)cc(NC(=O)c2c(C)[nH]c3c(-c4ccccc4)c(C(F)(F)F)nn3c2=O)c1` [Compound A1134, N-(3-chloro-5-methoxyphenyl)-5-methyl-7-oxo-3-phenyl-2-(trifluoromethyl)-4,7-dihydropyrazolo[1,5-a]pyrimidine-6-carboxamide]: the negative logarithm of the IC50 (pIC50) in assay [1] is over 5.30; in assay [2] it was over 4.70; in assay [3], over 4.70; in assay [4], over 5.30.

In the case of `Cc1[nH]c2c(-c3ccccc3)c(C(F)(F)F)nn2c(=O)c1C(=O)Nc1cc(Br)cc(CN(C)C)c1` [Compound A1139, N-(3-bromo-5-((dimethylamino)methyl)phenyl)-5-methyl-7-oxo-3-phenyl-2-(trifluoromethyl)-4,7-dihydropyrazolo[1,5-a]pyrimidine-6-carboxamide], the “BMM IC50 R (RANTES)” value in assay [1] was “C”. The pIC50 in assay [2] and in assay [3] was over 4.70 throughout. In addition, the “BMM IC50 M (MCP-1)” value in assay [4] is recorded as “C”.

For `Cc1[nH]c2c(-c3ccccc3)c(C(F)(F)F)nn2c(=O)c1-c1nc2c(OCC3CC3)cccc2o1` [Compound C1045, 6-(4-(cyclopropylmethoxy)benzo[d]oxazol-2-yl)-5-methyl-3-phenyl-2-(trifluoromethyl)pyrazolo[1,5-a]pyrimidin-7(4H)-one], the pIC50 in assay [1] is 4.70 to 5.30; in assay [2], over 4.70; in assay [3], over 4.70. Also, the “BMM IC50 M (MCP-1)” value in assay [4] is given as “C”.

`CSc1cccc2oc(-c3c(C)[nH]c4c(-c5ccccc5)c(C(F)(F)F)nn4c3=O)nc12` [Compound C1047, 5-methyl-6-(4-(methylthio)benzo[d]oxazol-2-yl)-3-phenyl-2-(trifluoromethyl)pyrazolo[1,5-a]pyrimidin-7(4H)-one]: the pIC50 in assay [1] is over 5.30; in assay [2], over 4.70; in assay [3] it was over 4.70; in assay [4] it was 4.70 to 5.30.

`Cc1[nH]c2c(-c3ccccc3)c(C(F)(F)F)nn2c(=O)c1-c1nc2c(O)cccc2o1` [Compound C1053, 6-(4-hydroxybenzo[d]oxazol-2-yl)-5-methyl-3-phenyl-2-(trifluoromethyl)pyrazolo[1,5-a]pyrimidin-7(4H)-one]: the “BMM IC50 R (RANTES)” value in assay [1] is recorded as “C”. The pIC50 is over 4.70 in assay [2] and 4.00 to 4.70 in assay [3]. In assay [4], the “BMM IC50 M (MCP-1)” value is “C”.

With `Cc1[nH]c2c(-c3ccccc3)c(C(F)(F)F)nn2c(=O)c1-c1nc2c(Cl)cccc2o1` [Compound C1055, 6-(4-chlorobenzo[d]oxazol-2-yl)-5-methyl-3-phenyl-2-(trifluoromethyl)pyrazolo[1,5-a]pyrimidin-7(4H)-one], in assay [1], the “BMM IC50 R (RANTES)” value is recorded as “C”. For the same molecule, the pIC50 in assay [2] and in assay [3] was over 4.70 throughout. In assay [4], the “BMM IC50 M (MCP-1)” value was “C”.

`COc1cccc2oc(-c3c(Cl)[nH]c4c(-c5ccccc5)c(C(F)(F)F)nn4c3=O)nc12` [Compound C1071, 5-chloro-6-(4-methoxybenzo[d]oxazol-2-yl)-3-phenyl-2-(trifluoromethyl)pyrazolo[1,5-a]pyrimidin-7(4H)-one]: the “BMM IC50 R (RANTES)” value in assay [1] is “C”. Besides, the pIC50 in assay [2] and in assay [3] was over 4.70 throughout. The “BMM IC50 M (MCP-1)” value in assay [4] is listed as “C”.

Turning to `Cc1[nH]c2c(-c3ccccc3)c(C(F)(F)F)nn2c(=O)c1-c1nc2c(OCc3ccccc3)cccc2o1` [Compound C1073, 6-(4-(benzyloxy)benzo[d]oxazol-2-yl)-5-methyl-3-phenyl-2-(trifluoromethyl)pyrazolo[1,5-a]pyrimidin-7(4H)-one], the “BMM IC50 R (RANTES)” value in assay [1] was “C”. For the same molecule, the pIC50 in assay [2] and in assay [3] was over 4.70 throughout. The “BMM IC50 M (MCP-1)” value in assay [4] is on record as “C”.

On to `Cc1[nH]c2c(-c3ccccc3)c(C(F)(F)F)nn2c(=O)c1-c1nc2c(C(N)=O)cccc2o1` [Compound C1074, 2-(5-methyl-7-oxo-3-phenyl-2-(trifluoromethyl)-4,7-dihydropyrazolo[1,5-a]pyrimidin-6-yl)benzo[d]oxazole-4-carboxamide], for which, in assay [1], the “BMM IC50 R (RANTES)” value is on record as “C”. Moreover, the pIC50 is 3.60 to 4.70 in assay [2] and under 4.00 in assay [3]. The “BMM IC50 M (MCP-1)” value in assay [4] was “C”.

Take `COc1cccc2oc(-c3c(C(F)(F)F)[nH]c4c(-c5ccccc5)c(C(F)(F)F)nn4c3=O)nc12` [Compound C1077, 6-(4-methoxybenzo[d]oxazol-2-yl)-3-phenyl-2,5-bis(trifluoromethyl)pyrazolo[1,5-a]pyrimidin-7(4H)-one]: the “BMM IC50 R (RANTES)” value in assay [1] is on record as “C”. For the same molecule, the pIC50 in assay [2] and in assay [3] was over 4.70 throughout. For the same molecule, the “BMM IC50 M (MCP-1)” value in assay [4] is recorded as “C”.

`COc1ccc(Br)c2oc(-c3c(C)[nH]c4c(-c5ccccc5)c(C(F)(F)F)nn4c3=O)nc12` [Compound C1081, 6-(7-bromo-4-methoxybenzo[d]oxazol-2-yl)-5-methyl-3-phenyl-2-(trifluoromethyl)pyrazolo[1,5-a]pyrimidin-7(4H)-one]: the pIC50 is 4.70 to 5.30 in assay [1], over 4.70 in assay [2], over 4.70 in assay [3] and 4.70 to 5.30 in assay [4].

Turning to `COc1c(Br)ccc2oc(-c3c(C)[nH]c4c(-c5ccccc5)c(C(F)(F)F)nn4c3=O)nc12` [Compound C1082, 6-(5-bromo-4-methoxybenzo[d]oxazol-2-yl)-5-methyl-3-phenyl-2-(trifluoromethyl)pyrazolo[1,5-a]pyrimidin-7(4H)-one], the “BMM IC50 R (RANTES)” value in assay [1] is “C”. Further, the pIC50 in assay [2] and in assay [3] was over 4.70 each time. Further, in assay [4], the “BMM IC50 M (MCP-1)” value is reported as “C”.

With `COc1cccc2oc(-c3c(C)[nH]c4c(-c5ccccc5F)c(C(F)(F)F)nn4c3=O)nc12` [Compound C1091, 3-(2-fluorophenyl)-6-(4-methoxybenzo[d]oxazol-2-yl)-5-methyl-2-(trifluoromethyl)pyrazolo[1,5-a]pyrimidin-7(4H)-one], the “BMM IC50 R (RANTES)” value in assay [1] is given as “C”. For the same molecule, the pIC50 in assay [2] and in assay [3] was over 4.70 each time. Also, the “BMM IC50 M (MCP-1)” value in assay [4] is listed as “C”.

On to `Cc1[nH]c2c(-c3ccccc3)c(C(F)(F)F)nn2c(=O)c1-c1nc2ccccc2n1C1CCCCC1` [Compound C1190, 6-(1-cyclohexyl-1H-benzo[d]imidazol-2-yl)-5-methyl-3-phenyl-2-(trifluoromethyl)pyrazolo[1,5-a]pyrimidin-7(4H)-one], for which, in assay [1], the “BMM IC50 R (RANTES)” value was “C”. The pIC50 in assay [2] is 3.60 to 4.70. The “BMM IC50 M (MCP-1)” value in assay [4] is given as “C”.

With `COc1cccc2oc(-c3c(C4CCC(CO)C4)[nH]c4c(-c5ccccc5)c(C(F)(F)F)nn4c3=O)nc12` (stereo not shown) [Compound C1236, 5-(3-(hydroxymethyl)cyclopentyl)-6-(4-methoxybenzo[d]oxazol-2-yl)-3-phenyl-2-(trifluoromethyl)pyrazolo[1,5-a]pyrimidin-7(4H)-one], the “BMM IC50 R (RANTES)” value in assay [1] was “C”. Further, the negative-log IC50 (pIC50) in assay [2] was over 4.70. Further, in assay [4], the “BMM IC50 M (MCP-1)” value was “C”.
